{"source": "paper PMC10713630", "about": "“Elucidation of the structural basis for ligand binding and translocation in conserved insect odorant receptor co-receptors” (Nature Communications, 2023)", "key": {"DmelOrco F84S": {"biological_target": "DmelOrco F84S (Drosophila melanogaster, UniProt Q9VNB5, F84S)", "sequence (Q9VNB5 whole entry F84S, the tested form may be a part)": "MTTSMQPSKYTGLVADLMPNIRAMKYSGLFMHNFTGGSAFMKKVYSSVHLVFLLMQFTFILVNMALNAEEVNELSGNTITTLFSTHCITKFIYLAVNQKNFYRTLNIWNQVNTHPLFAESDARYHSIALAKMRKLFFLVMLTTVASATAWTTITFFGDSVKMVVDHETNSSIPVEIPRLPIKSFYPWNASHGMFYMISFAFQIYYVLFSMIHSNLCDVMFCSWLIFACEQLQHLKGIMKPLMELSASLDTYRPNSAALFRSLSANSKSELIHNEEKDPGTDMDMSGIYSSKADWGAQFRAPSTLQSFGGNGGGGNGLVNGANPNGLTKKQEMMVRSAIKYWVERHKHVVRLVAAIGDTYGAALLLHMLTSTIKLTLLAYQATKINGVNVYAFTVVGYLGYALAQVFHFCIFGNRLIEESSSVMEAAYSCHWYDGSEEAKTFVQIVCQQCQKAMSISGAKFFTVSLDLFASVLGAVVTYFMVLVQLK", "assay": "TEVC recording of VUAA1-induced current, DmelOrco F84S in Xenopus oocytes", "type": "cell-based", "conditions": "500 µM VUAA1, TEVC", "from_the_text": "(§1) All Orco gene sequences were optimized[63] for protein expression in Xenopus laevis oocytes with the GenSmartTM Codon optimization Tool and subcloned into a pGEMHE-derived vector. The wildtype gene of Drosophila melanogaster Orco (DmelOrco) was synthesized by Genscript and subcloned with XmaI/XhoI cloning sites. Site-directed mutagenesis of DmelOrco was done by PCR with the Q5® site directed mutagenesis kit (NEB) using primers optimized with the NEBase Changer online tool and following the supplier’s protocol. After transformation of commercial competent bacteria (XL10 Gold) by standard heat-shock protocol and overnight culture in ampicillin-containing LB plates, positive clones were identified by electrophoretic restriction profile and external sequencing (Genewiz). DNAs of positive clones were amplified with Qiagen MidiPrep Kit and the ORF was fully sequenced. For in vitro transcription, DNAs were linearized with restriction enzyme NotI that cuts a unique site in the 3′ region of the polyA tail. […] DNA and RNA were analyzed by agarose-gel electrophoresis and quantified by spectrophotometry. […]\n(§2) Whole cell currents were recorded with the two-electrode voltage-clamp (TEVC) technique with the HiClamp robot (MultiChannel System). […] Data were extracted with M. Vivaudou’s programs[65] and statistically analyzed with Prism 8 (Graphpad)."}, "non-injected oocytes": {"tested_on": "non-injected oocytes", "assay": "TEVC recording, negative control (NC) oocytes, non-injected or water-injected", "type": "cell-based, Xenopus laevis", "conditions": "Fig.4b; individual oocytes; in µA", "protocol": "(§3) Xenopus laevis oocytes were prepared, as previously described. Briefly, oocytes were defolliculated after surgical retrieval by type 1 A collagenase over 2-3 h under smooth horizontal agitation. They were manually selected and incubated at 19 °C in modified-Barth’s solution (1 mM KCl, 0.82 mM MgSO4, 88 mM NaCl, 2.4 mM NaHCO3, 0.41 mM CaCl2, Ca(NO3)2 0.3 mM, 16 mM HEPES, pH 7.4) supplemented with 100 U mL^−1 of penicillin and streptomycin and 0.1 mg mL^−1 of gentamycin. Each oocyte was micro-injected with the Nanoject instrument (Drummond) with 50 nL of 20 ng of mRNA coding for the Orco of interest. Injected oocytes were incubated individually in 96-well plates for 4 days at 19 °C in the same buffer. Different batches of oocytes have been tested per construct. The results of the mutants of interest have been confirmed by a second set of experiments comparing the amplitudes with WT in the same day and from the same batch of oocytes (Supplementary Fig. 11).\nWhole cell currents were recorded with the two-electrode voltage-clamp (TEVC) technique with the HiClamp robot (MultiChannel System). Microelectrodes were filled with 3 M KCl. The high K^+ buffer used for recordings was composed of 91 mM KCl, 1 mM MgCl2, 1.8 mM CaCl2, 5 mM HEPES, pH 7.4. […] Data were extracted with M. Vivaudou’s programs[65] and statistically analyzed with Prism 8 (Graphpad)."}, "MdesOrco H81F": {"tested_on": "MdesOrco H81F", "conditions": "H81 replaced by phenylalanine; cited from earlier work"}, "DmelOrco F83A": {"biological_target": "DmelOrco F83A (Drosophila melanogaster, UniProt Q9VNB5, F83A)", "sequence (Q9VNB5 whole entry F83A, the tested form may be a part)": "as the sequence (Q9VNB5 whole entry F84S, the tested form may be a part) above, with F83A, S84F counted along it", "assay": "TEVC recording of VUAA1-induced current, DmelOrco F83A in Xenopus oocytes", "type": "cell-based", "conditions": "500 µM VUAA1, TEVC", "from_the_text": "as §1, §2"}, "DmelOrco F83W": {"biological_target": "DmelOrco F83W (Drosophila melanogaster, UniProt Q9VNB5, F83W)", "sequence (Q9VNB5 whole entry F83W, the tested form may be a part)": "as the sequence (Q9VNB5 whole entry F84S, the tested form may be a part) above, with F83W, S84F counted along it", "assay": "TEVC recording of VUAA1-induced current, DmelOrco F83W in Xenopus oocytes", "type": "cell-based", "conditions": "500 µM VUAA1, TEVC", "from_the_text": "as §1, §2"}, "DmelOrco Y400A": {"biological_target": "DmelOrco Y400A (Drosophila melanogaster, UniProt Q9VNB5, Y400A)", "sequence (Q9VNB5 whole entry Y400A, the tested form may be a part)": "as the sequence (Q9VNB5 whole entry F84S, the tested form may be a part) above, with S84F, Y400A counted along it", "assay": "TEVC recording of VUAA1-induced current, DmelOrco Y400A in Xenopus oocytes", "type": "cell-based", "conditions": "500 µM VUAA1, TEVC", "from_the_text": "as §1, §2"}, "DmelOrco W150A": {"biological_target": "DmelOrco W150A (Drosophila melanogaster, UniProt Q9VNB5, W150A)", "sequence (Q9VNB5 whole entry W150A, the tested form may be a part)": "as the sequence (Q9VNB5 whole entry F84S, the tested form may be a part) above, with S84F, W150A counted along it", "assay": "TEVC recording of VUAA1-induced current, DmelOrco W150A in Xenopus oocytes", "type": "cell-based", "set-up": "VUAA1-induced current, W150A: unit not given here", "from_the_text": "as §1, §2"}, "DmelOrco L141W": {"biological_target": "DmelOrco L141W (Drosophila melanogaster, UniProt Q9VNB5, L141W)", "sequence (Q9VNB5 whole entry L141W, the tested form may be a part)": "as the sequence (Q9VNB5 whole entry F84S, the tested form may be a part) above, with S84F, L141W counted along it", "assay": "TEVC recording of VUAA1-induced current, DmelOrco L141W in Xenopus oocytes", "type": "cell-based", "conditions": "500 µM VUAA1, TEVC", "from_the_text": "as §1, with “sequenced.” for “sequenced. For in vitro transcription, DNAs were linearized with restriction enzyme NotI that cuts a unique site in the 3′ region of the polyA tail.”\nWhole cell currents were recorded with the two-electrode voltage-clamp (TEVC) technique with the HiClamp robot (MultiChannel System). […] Data were extracted with M. Vivaudou’s programs[65] and statistically analyzed with Prism 8 (Graphpad). […]\n100 by 500 µM of the ligand VUAA1 and measured by TEVC recordings on DmelOrco WT and mutants […]"}, "DmelOrco V206S": {"biological_target": "DmelOrco V206S (Drosophila melanogaster, UniProt Q9VNB5, V206S)", "sequence (Q9VNB5 whole entry V206S, the tested form may be a part)": "as the sequence (Q9VNB5 whole entry F84S, the tested form may be a part) above, with S84F, V206S counted along it", "assay": "TEVC recording of VUAA1-induced current, DmelOrco V206S in Xenopus oocytes", "type": "cell-based", "set-up": "unit not given here", "conditions": "Fig.4b; individual oocytes", "from_the_text": "as §1, §2"}, "DmelOrco Y397S": {"biological_target": "DmelOrco Y397S (Drosophila melanogaster, UniProt Q9VNB5, Y397S)", "sequence (Q9VNB5 whole entry Y397S, the tested form may be a part)": "as the sequence (Q9VNB5 whole entry F84S, the tested form may be a part) above, with S84F, Y397S counted along it", "assay": "TEVC recording of VUAA1-induced current, DmelOrco Y397S in Xenopus oocytes", "type": "cell-based", "from_the_text": "as §1, §2"}, "DmelOrco K373E": {"biological_target": "DmelOrco K373E (Drosophila melanogaster, UniProt Q9VNB5, K373E)", "sequence (Q9VNB5 whole entry K373E, the tested form may be a part)": "as the sequence (Q9VNB5 whole entry F84S, the tested form may be a part) above, with S84F, K373E counted along it", "assay": "TEVC recording of VUAA1-induced current, DmelOrco K373E in Xenopus oocytes", "type": "cell-based", "set-up": "VUAA1-induced current, K373E: unit not given here", "from_the_text": "as §1, §2"}, "DmelOrco M210W": {"biological_target": "DmelOrco M210W (Drosophila melanogaster, UniProt Q9VNB5, M210W)", "sequence (Q9VNB5 whole entry M210W, the tested form may be a part)": "as the sequence (Q9VNB5 whole entry F84S, the tested form may be a part) above, with S84F, M210W counted along it", "assay": "TEVC recording of VUAA1-induced current, DmelOrco M210W in Xenopus oocytes", "type": "cell-based", "from_the_text": "All Orco gene sequences were optimized[63] for protein expression in Xenopus laevis oocytes with the GenSmartTM Codon optimization Tool and subcloned into a pGEMHE-derived vector. The wildtype gene of Drosophila melanogaster Orco (DmelOrco) was synthesized by Genscript and subcloned with XmaI/XhoI cloning sites. Site-directed mutagenesis of DmelOrco was done by PCR with the Q5® site directed mutagenesis kit (NEB) using primers optimized with the NEBase Changer online tool and following the supplier’s protocol. After transformation of commercial competent bacteria (XL10 Gold) by standard heat-shock protocol and overnight culture in ampicillin-containing LB plates, positive clones were identified by electrophoretic restriction profile and external sequencing (Genewiz). DNAs of positive clones were amplified with Qiagen MidiPrep Kit and the ORF was fully sequenced. For in vitro transcription, DNAs were linearized with restriction enzyme NotI that cuts a unique site in the 3′ region of the polyA tail. The linearized DNAs were purified by the standard phenol:chloroform extraction method and transcribed into mRNA using the T7 ultra mMessage mMachine kit (Thermo Fisher Scientific). mRNAs were purified with the NucleoSpin RNA plus XS kit (Machery-Nagel). DNA and RNA were analyzed by agarose-gel electrophoresis and quantified by spectrophotometry.\nas §3\nWhole cell currents were recorded with the two-electrode voltage-clamp (TEVC) technique with the HiClamp robot (MultiChannel System). Microelectrodes were filled with 3 M KCl. The high K^+ buffer used for recordings was composed of 91 mM KCl, 1 mM MgCl2, 1.8 mM CaCl2, 5 mM HEPES, pH 7.4. Membrane voltage was clamped to −50 mV and VUAA1 was applied for 60 s. Data were extracted with M. Vivaudou’s programs[65] and statistically analyzed with Prism 8 (Graphpad)."}, "DmelOrco Y390A": {"biological_target": "DmelOrco Y390A (Drosophila melanogaster, UniProt Q9VNB5, Y390A)", "sequence (Q9VNB5 whole entry Y390A, the tested form may be a part)": "as the sequence (Q9VNB5 whole entry F84S, the tested form may be a part) above, with S84F, Y390A counted along it", "assay": "TEVC recording of VUAA1-induced current, DmelOrco Y390A in Xenopus oocytes", "type": "cell-based", "conditions": "500 µM VUAA1, TEVC", "from_the_text": "as §1, §2"}, "MdesOrco": {"tested_on": "MdesOrco", "conditions": "cited from earlier work"}}, "note": "Values joined by “and” are separate entries in the source; they are usually repeats but may differ in a detail not shown here. Equal entries are not always repeated. “Also recorded” adds a separate entry of the source.", "data": [{"smiles": "CCc1ccc(NC(=O)CSc2nnc(-c3cccnc3)n2CC)cc1", "note": "[VUAA1, N-(4-ethylphenyl)−2-((4-ethyl-5-(3-pyridinyl)−4H-1,2,4-triazol-3-yl)thio)acetamide]", "values": [{"measurement": "Response to VUAA1 compared with WT", "setting": "DmelOrco F84S", "value": "decreased the response"}, {"measurement": "VUAA1-induced current, NC", "setting": "non-injected oocytes", "value": "0.05 and 0.03 and 0.3 and 0.19 and 0.39 and 0.02"}, {"measurement": "Response of MdesOrco H81F to VUAA1", "setting": "MdesOrco H81F", "value": "induced a response to VUAA1"}, {"measurement": "Current induced by VUAA1 (median)", "setting": "DmelOrco F83A", "value": 2.33, "unit": "µA"}, {"measurement": "Response to VUAA1 compared with WT", "setting": "DmelOrco F83W", "value": "decreased the response; also recorded: significant decrease in the response"}, {"measurement": "Response to VUAA1 compared with WT", "setting": "DmelOrco Y400A", "value": "did not significantly change the response"}, {"measurement": "Response to VUAA1 compared with WT", "setting": "DmelOrco W150A; 500 µM VUAA1, TEVC, W150A", "value": "did not significantly affect the amplitude of activation"}, {"measurement": "VUAA1-induced current, W150A", "setting": "DmelOrco W150A; Fig.4b, individual oocytes", "value": "4.32 and 3.86 and 5.79 and 2.71 and 5.07 and 2.76 and 2.23 and 2.97 and 2.04 and 1.54 and 0.79 and 4.84 and 4.06 and 8"}, {"measurement": "Response to VUAA1 compared with WT", "setting": "DmelOrco L141W", "value": "did not induce significant change"}, {"measurement": "VUAA1-induced current, V206S", "setting": "DmelOrco V206S", "value": "3.68 and 9.72 and 7.51 and 6.18 and 8.36 and 5.44 and 4.17 and 5.76"}, {"measurement": "Response to VUAA1 compared with WT", "setting": "DmelOrco Y397S; 500 µM VUAA1, TEVC, Y397S", "value": "no significant effect; also recorded: did not significantly change the amplitude of activation"}, {"measurement": "VUAA1-induced current, Y397S", "setting": "DmelOrco Y397S; Fig.4b, individual oocytes", "value": "0.98 and 1.78 and 4.23 and 0.82 and 0.77 and 1.48 and 8.3 and 6.29 and 5.87 and 5.52 and 1.76 and 2.18 and 1.83"}, {"measurement": "Current induced by VUAA1 (median)", "setting": "DmelOrco K373E; 500 µM VUAA1, TEVC, K373E", "value": 7.47, "unit": "µA"}, {"measurement": "VUAA1-induced current, K373E", "setting": "DmelOrco K373E; Fig.4b, individual oocytes", "value": "4.46 and 4.23 and 7.21 and 7.53 and 6.82 and 10.02 and 4.07 and 5.42 and 9.17 and 11.32 and 9.58 and 7.4 and 16.4 and 9.48 and 7.37 and 12.12"}, {"measurement": "EC50", "setting": "DmelOrco M210W", "value": 120, "unit": "µM"}, {"measurement": "Current induced by VUAA1 (median)", "setting": "DmelOrco M210W; 500 µM VUAA1, TEVC, M210W", "value": 2.12, "unit": "µA"}, {"measurement": "Response to VUAA1 compared with WT", "setting": "DmelOrco M210W; 500 µM VUAA1, TEVC, M210W", "value": "significant decrease in the response"}, {"measurement": "Imax", "setting": "DmelOrco M210W; concentration-effect curve of VUAA1, TEVC, M210W", "value": 1.50, "unit": "µA"}, {"measurement": "Response to VUAA1 compared with WT", "setting": "DmelOrco Y390A", "value": "did not show significant change"}, {"measurement": "Sensitivity of MdesOrco to VUAA1", "setting": "MdesOrco", "value": "VUAA1-insensitive"}]}]}
